Experimental data from US5066783A, “Antiviral peptides and means for treating herpes infections” (priority 1988, dated 1991).
Values joined by “and” are separate entries in the source; they are usually repeats but may differ in a detail not shown here. Equal values may be shown once. Read-outs that look alike come from different tables or passages of the source. Where a SMILES comes first, the peptide text is derived from it. The star is where a group is joined. Desaminotyrosyl = O=C(CCc1ccc(O)cc1)*

Legend:
[1] = biological target: ribonucleotide reductase from HSV-1 (strain F)-infected BHK-21/C13 cells (Human herpesvirus 1, UniProt P08543); test: HSV-1 ribonucleotide reductase (CDP reductase) inhibition; settings: 75 μg protein extract
Sequence of ribonucleotide reductase from HSV-1 (strain F)-infected BHK-21/C13 cells (P08543 whole entry): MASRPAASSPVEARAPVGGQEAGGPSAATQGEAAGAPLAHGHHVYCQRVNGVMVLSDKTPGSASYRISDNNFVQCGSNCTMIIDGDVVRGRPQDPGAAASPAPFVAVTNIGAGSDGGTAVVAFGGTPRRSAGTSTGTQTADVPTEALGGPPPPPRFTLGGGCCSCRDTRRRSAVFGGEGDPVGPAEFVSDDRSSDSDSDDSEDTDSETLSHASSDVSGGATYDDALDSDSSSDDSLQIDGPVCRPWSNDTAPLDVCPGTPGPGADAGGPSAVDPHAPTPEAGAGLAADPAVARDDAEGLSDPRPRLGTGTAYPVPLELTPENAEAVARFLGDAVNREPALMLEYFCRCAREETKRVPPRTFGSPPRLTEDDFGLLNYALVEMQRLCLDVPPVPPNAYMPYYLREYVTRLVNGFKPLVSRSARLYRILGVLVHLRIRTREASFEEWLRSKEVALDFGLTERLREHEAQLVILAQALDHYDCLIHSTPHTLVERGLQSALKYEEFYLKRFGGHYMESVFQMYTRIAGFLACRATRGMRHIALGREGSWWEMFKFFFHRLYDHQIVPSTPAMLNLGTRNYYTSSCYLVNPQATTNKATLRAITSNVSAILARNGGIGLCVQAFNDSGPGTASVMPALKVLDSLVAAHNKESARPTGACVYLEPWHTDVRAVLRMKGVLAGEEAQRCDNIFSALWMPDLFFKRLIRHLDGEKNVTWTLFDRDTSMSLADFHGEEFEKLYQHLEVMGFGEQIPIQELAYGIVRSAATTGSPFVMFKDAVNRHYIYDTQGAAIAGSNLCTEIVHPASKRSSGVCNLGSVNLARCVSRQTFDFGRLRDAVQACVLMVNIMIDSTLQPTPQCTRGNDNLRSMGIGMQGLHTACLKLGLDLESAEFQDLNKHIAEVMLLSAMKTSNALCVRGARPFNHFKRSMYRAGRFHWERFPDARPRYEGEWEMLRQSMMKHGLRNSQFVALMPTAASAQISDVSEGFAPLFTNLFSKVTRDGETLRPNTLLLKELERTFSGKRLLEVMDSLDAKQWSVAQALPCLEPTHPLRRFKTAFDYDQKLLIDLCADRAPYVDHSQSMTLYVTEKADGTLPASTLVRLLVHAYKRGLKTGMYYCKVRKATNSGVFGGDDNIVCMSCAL

[2] = biological target: T1, herpes simplex viral ribonucleotide reductase (Human herpesvirus 1, UniProt P08543); test: biochemical; format: biochemical, herpes simplex virus
T1 construct: endogenous in cells
T1 sequence (P08543 whole entry): as above

[3] = read-out: IC50 (concentration producing 50% of the maximal inhibition of enzyme activity), 75 μg enzyme preparation (21.6 units mg^-1), mean of four assays
[4] = read-out: IC50 (concentration producing 50% of the maximal inhibition of enzyme activity)
[5] = IC50 (concentration producing 50% of the maximal inhibition of enzyme activity)

In the case of H-STSYAGAVVNDL-OH [HSV 4-15], the “% CDP REDUCTASE ACTIVITY” value ([1]; 10 μM peptide) is reported as 87%, the “% CDP REDUCTASE ACTIVITY” value ([1]; 25 μM peptide) is reported as 71% and the “% CDP REDUCTASE ACTIVITY” value ([1]; 50 μM peptide) is reported as 47%. The “% CDP REDUCTASE ACTIVITY” value ([1]; 100 μM peptide) was 18% and the “% CDP REDUCTASE ACTIVITY” value ([1]; 400 μM peptide) was 11%.
For “H-YAGPVVNDL-OH [H--Tyr--Ala--Gly--Pro--Val--Val--Asn--Asp--Leu--OH]”, the IC50 [2, 3] was 48 µM.
With “Ac-YAGTVIQDL-OH [Ac--Tyr--Ala--Gly--Thr--Val--Ile--Gln--Asp--Leu--OH]” the IC50 [2] was 36.5 µM.
In the case of H-YTMLVVDDL-OH [EBV 7-15], the “% CDP REDUCTASE ACTIVITY” value ([1]; 10 μM peptide) is reported as 100%, the “% CDP REDUCTASE ACTIVITY” value ([1]; 25 μM peptide) is reported as 100% and the “% CDP REDUCTASE ACTIVITY” value ([1]; 50 μM peptide) is reported as 100%. For the same compound, the “% CDP REDUCTASE ACTIVITY” value ([1]; 100 μM peptide) was 70% and the “% CDP REDUCTASE ACTIVITY” value ([1]; 400 μM peptide) was 10%.
For “Ac-YSVINDL-OH [Ac--Tyr--Ser--Val--Ile--Asn--Asp--Leu--OH]”, the IC50 [2] was 77 µM.
Work on CC(=O)N[C@@H](Cc1ccc(O)cc1)C(=O)N[C@H](C)C(=O)NCC(=O)N[C@@H](C)C(=O)N[C@H](C(=O)N[C@H](C(=O)N[C@@H](CC(N)=O)C(=O)N[C@@H](CC(=O)O)C(=O)N[C@@H](CC(C)C)C(=O)O)C(C)C)C(C)C [Ac--Tyr--D--Ala--Gly--Ala--Val--Val--Asn--Asp-- Leu--OH] yielded an IC50 [2, 4] of 230 µM.
“Ac-YAGVVINDL-OH [Ac--Tyr--Ala--Gly--Val--Val--Ile--Asn--Asp--Leu--OH]” was tested, and the IC50 [2, 5] was 4.3 µM.
Work on “H-YVVNDL-OH [H--Tyr--Val--Val--Asn--Asp--Leu--OH]” yielded an IC50 [2] of 81 µM.
Work on “Ac-YAVVNDL-OH [Ac--Tyr--Ala--Val--Val--Asn--Asp--Leu--OH]” yielded an IC50 [2, 3] of 330 µM.
COc1ccc(C[C@H](N)C(=O)N[C@@H](C)C(=O)NCC(=O)N[C@@H](C)C(=O)N[C@H](C(=O)N[C@H](C(=O)N[C@@H](CC(N)=O)C(=O)N[C@@H](CC(=O)O)C(=O)N[C@@H](CC(C)C)C(=O)O)C(C)C)C(C)C)cc1 [H--Tyr(OMe)--Ala--Gly--Ala--Val--Val--Asn--Asp--Leu--OH] was tested, and the IC50 [2, 4] was 88 µM.
CC[C@H](C)[C@H](NC(=O)[C@@H](NC(=O)CCc1ccc(O)cc1)C(C)C)C(=O)N[C@@H](CC(N)=O)C(=O)N[C@@H](CC(=O)O)C(=O)N[C@@H](CC(C)C)C(=O)O [desamino-Tyr--Val--Ile--Asn--Asp--Leu--OH] (Desaminotyrosyl-VINDL-OH) showed an IC50 [2] of 17 µM.
With “Ac-YAATVINDL-OH [Ac--Tyr--Ala--Ala--Thr--Val--Ile--Asn--Asp--Leu--OH]” the IC50 [2] was 15 µM.
“Ac-YAGTVINDL-OH [Ac--Tyr--Ala--Gly--Thr--Val--Ile--Asn--Asp--Leu--OH]” was tested, and the IC50 [2, 5] was 2 µM and 5.2 µM.
With CC(=O)N[C@@H](Cc1ccc(O)cc1)C(=O)N[C@@H](C)C(=O)NCC(=O)N[C@@H](C)C(=O)N[C@H](C(=O)N[C@H](C(=O)N[C@@H](CC(N)=O)C(=O)N[C@@H](CC(=O)O)C(=O)N[C@@H](CC(C)C)C(=O)O)C(C)C)C(C)C [Ac--Tyr--Ala--Gly--Ala--Val--Val--Asn--Asp--Leu--OH] the IC50 [2, 4] was 20 µM.
“Ac-YVINDL-OH [Ac--Tyr--Val--Ile--Asn--Asp--Leu--OH]” gave an IC50 [2] of 27 µM.
Work on CC(C)C[C@H](NC(=O)[C@H](CC(=O)O)NC(=O)[C@H](CC(N)=O)NC(=O)[C@@H](NC(=O)[C@@H](NC(=O)[C@H](C)NC(=O)CNC(=O)[C@H](C)NC(=O)[C@H](Cc1ccc(O)cc1)NC(=O)CCCCCCCN)C(C)C)C(C)C)C(=O)O [NH2 (CH2)7 CO--Tyr--Ala--Gly--Ala--Val--Val--Asn--Asp--Leu--OH] yielded an IC50 ([2]; 75 μg enzyme preparation (21.6 units mg^-1), mean of four assays) of 12.3 µM.
With “H-KYAGAVVNDL-OH [H--Lys--Tyr--Ala--Gly--Ala--Val--Val--Asn--Asp--Leu--OH]” the IC50 [2, 3] was 68 µM.
With “H-YAGAVLDDL-OH [H--Tyr--Ala--Gly--Ala--Val--Leu--Asp--Asp--Leu--OH]” the IC50 [2] was 90 µM.
In the case of CC(=O)N[C@@H](Cc1ccc(O)cc1)C(=O)N[C@@H](C)C(=O)NCC(=O)N[C@@H](C)C(=O)N[C@H](C(=O)N[C@H](C(=O)N[C@@H](CC(N)=O)C(=O)N[C@@H](CC(=O)O)C(=O)N[C@@H](CC(C)C)C(N)=O)C(C)C)C(C)C [Ac--Tyr--Ala--Gly--Ala--Val--Val--Asn--Asp--Leu--NH2], the IC50 [2, 3] is reported as 76 µM.
Work on “Ac-FVINDL-OH [Ac--Phe--Val--Ile--Asn--Asp--Leu--OH]” yielded an IC50 [2] of 42 µM.
